Results reported in PMC8952364, “Polyphenols as Inhibitors of Antibiotic Resistant Bacteria—Mechanisms Underlying Rutin Interference with Bacterial Virulence” (Pharmaceuticals, 2022).
In brackets after ≈: the same amount, converted by molar mass. Like-named read-outs stand apart in the source and are kept apart here.

Assays:
[1] = tested on: E. coli ATCC 25922; parameters: method as in PMID 29327068; details: cited from earlier work
[2] = tested on: P. aeruginosa IBRS P001; test: Antimicrobial microdilution assay (MIC/MBC); assay type: cell-based, Pseudomonas aeruginosa; details: for MIC: 37 °C, 24 h; for MBC: subcultivation, 24 h at 37 °C
Outline: (§1)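 Broth microdilution: 0.5 McFarland suspensions, diluted twenty-fold, were mixed 1:10 with polyphenol dilutions (0.0039–1 mg/mL) and incubated 24 h at 37 °C.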

[3] = tested on: P. aeruginosa MMA83; test: Antimicrobial microdilution assay (MIC/MBC); assay type: cell-based, Pseudomonas aeruginosa; details: for MIC: 37 °C, 24 h; for MBC: subcultivation, 24 h at 37 °C
Outline: as §1

[4] = tested on: E. coli IMD989; test: Antimicrobial microdilution assay (MIC/MBC); assay type: cell-based, Escherichia coli; details: for MIC: 37 °C, 24 h; for MBC: subcultivation, 24 h at 37 °C
Outline: as §1

[5] = tested on: E. coli IBRS E003; test: Antimicrobial microdilution assay (MIC/MBC); assay type: cell-based, Escherichia coli; details: for MIC: 37 °C, 24 h; for MBC: subcultivation, 24 h at 37 °C
Outline: as §1

[6] = tested on: A. baumannii S2/2; test: Antimicrobial microdilution assay (MIC/MBC); assay type: cell-based, Acinetobacter baumannii; details: for MIC: 37 °C, 24 h; for MBC: subcultivation, 24 h at 37 °C
Outline: as §1

[7] = tested on: A. baumannii 6077/12; test: Antimicrobial microdilution assay (MIC/MBC); assay type: cell-based, Acinetobacter baumannii; details: for MIC: 37 °C, 24 h; for MBC: subcultivation, 24 h at 37 °C
Outline: as §1

[8] = tested on: S. infantis 1371/1; test: Antimicrobial microdilution assay (MIC/MBC); assay type: cell-based, Salmonella Infantis; details: for MIC: 37 °C, 24 h; for MBC: subcultivation, 24 h at 37 °C
Outline: as §1

[9] = tested on: Methicillin resistant S. aureus IBRS MRSA 011; test: Antimicrobial microdilution assay (MIC/MBC); assay type: cell-based, Staphylococcus aureus; details: for MIC: 37 °C, 24 h; for MBC: subcultivation, 24 h at 37 °C
Outline: as §1

[10] = tested on: HaCaT cells; parameters: method as in PMID 28962387; details: previous assessment; cited from earlier work
[11] = tested on: HaCaT cells; test: Cytotoxicity in HaCaT cell line (crystal violet assay); assay type: cell-based, human; details: HaCaT, 24 h treatment, crystal violet
Outline: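 HaCaT keratinocytes seeded 1 × 10^4 cells/well 24 h before treatment, then exposed to polyphenols for 24 h. Viable cells stained with crystal violet, absorbance at 590 nm. IC50 in μg/mL, triplicate with three readings each, mean ± SD.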

[12] = tested on: K. pneumoniae Ni9; test: Antimicrobial microdilution assay (MIC/MBC); assay type: cell-based, Klebsiella pneumoniae; details: for MIC: 37 °C, 24 h; for MBC: subcultivation, 24 h at 37 °C
Outline: as §1

[13] = tested on: K. pneumoniae IT977; test: Antimicrobial microdilution assay (MIC/MBC); assay type: cell-based, Klebsiella pneumoniae; details: for MIC: 37 °C, 24 h; for MBC: subcultivation, 24 h at 37 °C
Outline: as §1

[14] = tested on: A. xylosoxidans 37F; test: Antimicrobial microdilution assay (MIC/MBC); assay type: cell-based, Achromobacter xylosoxidans; details: for MIC: 37 °C, 24 h; for MBC: subcultivation, 24 h at 37 °C
Outline: as §1

[15] = tested on: P. aeruginosa ATCC 10145; parameters: method as in PMID 22823343; details: cited from earlier work
[16] = tested on: eleven antibiotic resistant strains of bacteria; test: Antimicrobial assay, summary over the examined strains; assay type: cell-based; details: antibiotic resistant strains of Table 1
Experimental: The bacterial suspension (0.5 Mc Farland) was prepared, and twenty-fold dilutions of these suspensions were mixed in a 1:10 ratio with the corresponding polyphenol dilution (0.0039–1 mg/mL). Microtiter plates were incubated at 37 °C for 24 h. The lowest concentrations without visible growth (under a binocular microscope) were defined as MICs. The bactericidal concentrations (MBCs) were determined by serial subcultivation of 2 μL of the well’s content and further incubation for 24 h at 37 °C. Streptomycin (SigmaAldrich, Darmstadt, Germany) was used as a positive control. The polyphenols were obtained from Extrasynthese, Rhone, France (rutin, isoquercitrin) and SigmaAldrich, Germany (hesperetin, hesperidin, naringenin, naringin, taxifolin, morin, chlorogenic acid, ferulic acid, p-coumaric acid, and gallic acid). The stock compounds were prepared in ethanol (30%), and adequate ethanol concentrations were used as the negative control in the assays. Experiments were done in triplicate.

[17] = tested on: P. aeruginosa IBRS P001 biofilm; test: Crystal violet antibiofilm assay (biofilm formation); assay type: cell-based, Pseudomonas aeruginosa; details: 24 h
Experimental: After incubation, each well was washed twice with sterile PBS (phosphate-buffered saline, pH 7.4) and fixed with methanol for 10 min. After removal of methanol the plate was air-dried. The biofilm was stained with 0.1% crystal violet (Bio-Merieux, Marcy l’Etoile, France) for 30 min. The plate was washed with water, air dried, and the stain was dissolved with 200 μL of 96% ethanol (Zorka, Sabac, Serbia). The absorbance was read at 620 nm on a Multiskan™ FC microplate photometer (Thermo Scientific™, Waltham, MA, USA). The results are presented as biofilm forming capacity (%) compared to control.

[18] = tested on: S. aureus CECT 976; parameters: method as in PMID 22823343; details: cited from earlier work
[19] = tested on: P. aeruginosa ATCC 10145 biofilms; parameters: method as in PMID 22823343; details: 1000 µg/mL; cited from earlier work
[20] = tested on: E. coli CECT434; parameters: method as in PMID 22823343; details: cited from earlier work

O=C(O)c1cc(O)c(O)c(O)c1 [Gallic Acid, gallic acid]
MIC [1]: 500 µg/mL (≈ 2.94 mM) | MIC ([2]; Pseudomonas aeruginosa, IBRSP001, read-out: MIC): > 1000 µg/mL | MBC ([2]; Pseudomonas aeruginosa, IBRSP001, read-out: MBC): > 1000 µg/mL | MIC ([3]; Pseudomonas aeruginosa, MMA83, read-out: MIC): 1000 µg/mL (≈ 5.88 mM) | MBC ([3]; Pseudomonas aeruginosa, MMA83, read-out: MBC): 1000 µg/mL (≈ 5.88 mM) | MIC [4]: >1000 µg/mL | MIC ([4]; Escherichia coli, IMD989, read-out: MIC): > 1000 µg/mL | MBC ([4]; Escherichia coli, IMD989, read-out: MBC): > 1000 µg/mL | MIC [5]: >1000 µg/mL | MIC ([5]; Escherichia coli, IBRSE003, read-out: MIC): > 1000 µg/mL | MBC ([5]; Escherichia coli, IBRSE003, read-out: MBC): > 1000 µg/mL | MIC ([6]; Acinetobacter baumannii, S2/2, read-out: MIC): 500 µg/mL (≈ 2.94 mM) | MBC ([6]; Acinetobacter baumannii, S2/2, read-out: MBC): 500 µg/mL (≈ 2.94 mM) | MIC ([7]; Acinetobacter baumannii, 6077/12, read-out: MIC): 500 µg/mL (≈ 2.94 mM) | MBC ([7]; Acinetobacter baumannii, 6077/12, read-out: MBC): 1000 µg/mL (≈ 5.88 mM) | MIC ([8]; Salmonella enterica, 1371/1, read-out: MIC): > 1000 µg/mL | MBC ([8]; Salmonella enterica, 1371/1, read-out: MBC): > 1000 µg/mL | MIC ([9]; Staphylococcus aureus, MRSA, read-out: MIC): > 1000 µg/mL | MBC ([9]; Staphylococcus aureus, MRSA, read-out: MBC): > 1000 µg/mL | IC50 towards HaCaT cells [10]: 84.2 µg/mL (≈ 0.495 mM) | IC50 ([11]; Homo sapiens, read-out: IC50 (compound concentration that inhibited 50% of the cell growth)): < 80 µg/mL | MIC ([12]; Klebsiella pneumoniae, NI9, read-out: MIC): 1000 µg/mL (≈ 5.88 mM) | MBC ([12]; Klebsiella pneumoniae, NI9, read-out: MBC): 1000 µg/mL (≈ 5.88 mM) | MIC ([13]; Klebsiella pneumoniae, IT977, read-out: MIC): 1000 µg/mL (≈ 5.88 mM) | MBC ([13]; Klebsiella pneumoniae, IT977, read-out: MBC): 1000 µg/mL (≈ 5.88 mM) | MIC ([14]; Achromobacter xylosoxidans, 37F, read-out: MIC): 500 µg/mL (≈ 2.94 mM) | MBC ([14]; Achromobacter xylosoxidans, 37F, read-out: MBC): 1000 µg/mL (≈ 5.88 mM)

COc1cc(/C=C/C(=O)O)ccc1O [Ferulic acid, ferulic acid]
MIC [15]: 100 µg/mL (≈ 0.515 mM) | MIC [2]: 500 µg/mL (≈ 2.57 mM) | MBC [2]: 1000 µg/mL (≈ 5.15 mM) | MIC [3]: 1000 µg/mL (≈ 5.15 mM) | MBC [3]: 1000 µg/mL (≈ 5.15 mM) | lowest MIC among the examined strains [16]: 500 µg/mL | biofilm inhibition ([17]; 500 µg/mL (MIC)): even higher inhibition | reduction of biofilm formation (biomass), in words ([17]; MIC and sub-MIC, crystal violet, Figure 1): significant (****, p < 0.0001) reduction | MIC [4]: 1000 µg/mL (≈ 5.15 mM) | MBC [4]: 1000 µg/mL (≈ 5.15 mM) | MIC [5]: >1000 µg/mL | MBC [5]: >1000 µg/mL | MIC [6]: 500 µg/mL (≈ 2.57 mM) | MBC [6]: 500 µg/mL (≈ 2.57 mM) | MIC [7]: 500 µg/mL (≈ 2.57 mM) | MBC [7]: 500 µg/mL (≈ 2.57 mM) | MIC [8]: 1000 µg/mL (≈ 5.15 mM) | MBC [8]: 1000 µg/mL (≈ 5.15 mM) | MIC [18]: 1100 µg/mL (≈ 5.66 mM) | MIC [9]: 500 µg/mL (≈ 2.57 mM) | MBC [9]: 1000 µg/mL (≈ 5.15 mM) | reduction of biofilms [19]: more than 70% | MIC [20]: 100 µg/mL (≈ 0.515 mM) | IC50 (compound concentration that inhibited 50% of the cell growth) [11]: >1000 µg/mL | MIC [12]: 1000 µg/mL (≈ 5.15 mM) | MBC [12]: 1000 µg/mL (≈ 5.15 mM) | MIC [13]: 1000 µg/mL (≈ 5.15 mM) | MBC [13]: 1000 µg/mL (≈ 5.15 mM) | MIC [14]: 1000 µg/mL (≈ 5.15 mM) | MBC [14]: 1000 µg/mL (≈ 5.15 mM)
